The text below walks through data of patent USRE32268E, “Therapeutic composition and method of therapeutically treating warm blooded animals therewith” (Strategic Medical Research Corp., priority 1983, dated 1986).

Read-outs that look alike come from different tables or passages of the source.

Assay [1] deals with influenza A2 virus, Hong Kong strain. Put plainly: antiviral potency against influenza A2 virus, Hong Kong strain, in tissue culture (baby hamster kidney cell line). It is filed as cell-based. The settings on record: for log reduction at 3 µg/mL / log reduction at 10 µg/mL: read-out: Log Decrease in Infectivity of Virus Inoculum. The procedure:
Well established methodology of the prior art was employed to determine the antiviral potency of compounds against influenza A2 virus, Hong Kong strain, in tissue cultures, employing the baby hamster kidney cell line (see R. L. Muldoon, L. Mezny and G. G. Jackson in Antimicrobial Agents and Chemotherapy 2:224-228, 1972). Virus infectivity was evaluated by both hemagglutination techniques and cytopathogenic effects, with identical results for each method. In Table 1 below, the virus-inhibiting effects of two low drug concentrations, 3 and 10 μg/ml, are depicted. Results are given as the log decrease in infectivity of the virus inoculum. A log decrease of 4.0 is the maximum obtainable, representing complete suppression of virus growth in the system. The virus inoculum of day 0 was always 100 times that amount required to kill 50% of the tissue culture cells (100 TCD50).

Another assay relates to herpes simplex virus. Put plainly: organism not typed. Format: cell-based.
The subject of assay [2] is influenza A2/Hong Kong disease. Put plainly: suppression of influenza A2/Hong Kong disease in mice. It is filed as in vivo. The settings on record: infected treated, 40 mg/Kg orally, at 8 days.
A further assay deals with influenza A/PR/8. Put plainly: prevention of death in mice ill with a lethal influenza A/PR/8 infection. It is filed as in vivo. To be noted: once 90 minutes before infection; for % of Population Protected / % Mortality: 8 days; for % Mortality: control 95; for Mortality Frequency at 8 Days: control 42/44. The procedure: The above medication was also examined for its capacity to prevent death in mice ill with a lethal influenza A/PR/8 infection. The drug was given subcutaneously at 3 dose levels, once 90 minutes before infection.

[3] abbreviates: 3 μg/ml, inoculum 100 TCD50, 4.0 is the maximum obtainable.
Where [4] appears, read: 10 μg/ml, inoculum 100 TCD50, 4.0 is the maximum obtainable.
The mark [5] stands for this setting: herpes simplex virus, tissue culture.

Consider “3-O-2'-(N',N'-dimethylaminopropyl)-D-glucopyranose”, for which the “Log Decrease in Infectivity of Virus Inoculum” value (from here on “Log Decrease in Infectivity”) in assay [1] (setting [3]) is 1.0 log. In addition, the “Log Decrease in Infectivity” value in assay [1] (setting [4]) is 2.0 log. In the assay on herpes simplex virus, the “Concentration required to exert 50% inhibition of herpes-induced plaque formation” value turned out to be 3 µg/mL and the “Concentration required to exert 100% inhibition of herpes-induced plaque formation” value was > 20 µg/mL.
On to `CN1CCC(O[C@@H]2[C@H]3OC(C)(C)O[C@H]3O[C@@H]2[C@H]2COC(C)(C)O2)CC1` [1,2,5,6-di-O--isopropylidene-3-O--4'-(N--methyl-piperidyl)-D-glucofuranose], for which, in the assay with herpes simplex virus (read-out: Concentration required to exert 50% inhibition of herpes-induced plaque formation, herpes simplex virus, tissue culture), the IC50 was < 3 µg/mL.
In the case of `CCN(CC)CCOC1C(C2COC(C)(C)O2)OC2OC(C)(C)OC21` [1,2:5,6-di-O-isopropylidene-3-O-2'-(N',N'-diethylaminoethyl)-D-glucofuranose], in the assay on herpes simplex virus (setting [5]), the “Concentration required to exert 50% inhibition of herpes-induced plaque formation” value was determined as 6 µg/mL and the “Concentration required to exert 100% inhibition of herpes-induced plaque formation” value amounted to 30 µg/mL.
In the case of `CCN(CC)CCO[C@H]1[C@H](O)[C@@H](CO)OC(O)[C@@H]1O` (stereo partly drawn) [3-O-2'-(N',N'-diethylaminoethyl)-D-glucose], the log reduction at 3 µg/mL in assay [1] (setting [3]) amounted to 0.5. Also, the log reduction at 10 µg/mL in assay [1] (setting [4]) was 1.
In the same order, the values of `CN(C)CCO[C@H]1[C@H](O)[C@@H](CO)OC(O)[C@@H]1O` (stereo partly drawn) [3-O-2'-(N',N'-dimethylaminoethyl)-D-glucopyranose] are 2.5 and 3.5.
In the same order, the values of `CC(CO[C@H]1[C@H](O)[C@@H](CO)OC(O)[C@@H]1O)CN(C)C` (stereo partly drawn) [3-O-3'-(2',N',N'-trimethylamino-n-propyl)-D-glucopyranose] are 2.4 and 3.
Take `CN(C)CCCO[C@H]1[C@H](O)[C@@H](CO)OC(O)[C@@H]1O` (stereo partly drawn) [3-O-3'-(N',N'-dimethylamino-n-propyl)-D-glucopyranose]: the “Frequency of Normal Lungs (<170 mg)” value in assay [2] (normal 12/21, infected control 1/21) is 13/21. The “Average Lung Weight” value in assay [2] (beginning 24 hours post-infection, 50% of drug 1,2-acetone-blocked, normal 160, infected control 258) was 177 mg. In assay [2] (beginning 24 hours post-infection, lung weight), the “% Disease Suppression” value worked out at 82%. Besides, the “% of Population Protected” value with influenza A/PR/8 (10 mg/Kg subcutaneously) was 14%; in the assay with influenza A/PR/8 (40 mg/Kg subcutaneously), 23%; in the assay with influenza A/PR/8 (160 mg/Kg subcutaneously) it was 50%. Further, the “% Mortality” value in the assay with influenza A/PR/8 (10 mg/Kg subcutaneously) is 81%; with influenza A/PR/8 (40 mg/Kg subcutaneously), 72%; in the assay on influenza A/PR/8 (160 mg/Kg subcutaneously), 45%. Moreover, the entries for the “Mortality Frequency at 8 Days” value in the assay on influenza A/PR/8 (10 mg/Kg subcutaneously), in the assay on influenza A/PR/8 (40 mg/Kg subcutaneously) and in the assay on influenza A/PR/8 (160 mg/Kg subcutaneously) were 18/22, 16/22 and 10/22, respectively. Moreover, the relative antiviral potency result in assay [1] (influenza A2, among tested derivatives) is given as “the most potent effect”; with herpes simplex virus, “the most potent derivative”. Besides, in assay [1], the log reduction at 3 µg/mL worked out at 3.2. Further, in assay [1], the log reduction at 10 µg/mL stood at 4.
For the compound `NCCCO[C@H]1[C@H](O)[C@@H](CO)OC(O)[C@@H]1O` (stereo partly drawn) [3-O--3'-n-propylamino-D-glucose, 3-O-3'-(n-propylamino)-D-glucopyranose], the IC100 with herpes simplex virus (read-out: Concentration required to exert 100% inhibition of herpes-induced plaque formation, herpes simplex virus, tissue culture) is 20 µg/mL.
`CN1CCC(O[C@H]2[C@H](O)[C@@H](CO)OC(O)[C@@H]2O)CC1` (stereo partly drawn) [3-O--4'-(N--methylpiperidyl)-D-glucose, 3-O-4'-(N-methylpiperidyl)-D-glucopyranose]: in assay [1], the log reduction at 3 µg/mL was 2.5 and the log reduction at 10 µg/mL is 3.5.
For `CC(CN(C)C)OC[C@H]1OC(O)[C@H](O)[C@@H](O)[C@H]1O` (stereo partly drawn) [6-O-2'-(N',N'-dimethylaminopropyl)-D-galactose], the “Log Decrease in Infectivity” value in assay [1] (setting [3]) was determined as 0.1 log; in assay [1] (setting [4]), 0.5 log.
Turning to `CN(C)CCCOC[C@H]1OC(O)[C@H](O)[C@@H](O)[C@H]1O` (stereo partly drawn) [6-O-3'-(N',N'-dimethylamino-n-propyl)-D-galactopyranose], the log reduction at 3 µg/mL in assay [1] (setting [3]) worked out at 1. Further, in assay [1] (setting [4]), the log reduction at 10 µg/mL is 2.
On to `CC(CN(C)C)O[C@H]1O[C@H](CO)[C@@H](O)[C@H](O)[C@H]1O` (stereo partly drawn) [α-N,N--dimethylaminoisopropylglucoside, α-N,N-dimethylaminoisopropyl-D-glucoside], for which the “Log Decrease in Infectivity” value in assay [1] (setting [3]) stood at 1.5 log; in assay [1] (setting [4]) it was 2.5 log. Moreover, in the assay on herpes simplex virus (setting [5]), the “Concentration required to exert 50% inhibition of herpes-induced plaque formation” value stood at 10 µg/mL. Moreover, in the assay with herpes simplex virus (setting [5]), the “Concentration required to exert 100% inhibition of herpes-induced plaque formation” value is > 50 µg/mL.
